Measurements taken from the supplement of paper PMC10307832.

Assays:
Test in all cases: relative viability (nuclei count vs DMSO), 5 days (fraction); higher = more cells survive
[1] = compound: O=c1ncccn1[C@@H]1O[C@H](CO)[C@@H](O)[C@H]1O [Zebularine] + COc1cccc2cc(-c3nc([C@H]4CC[C@H](C(=O)O)CC4)n4ncnc(N)c34)[nH]c12 [OSI-027] (partner 0.5 µM)
Procedure, shortened: (§1)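 Lung cancer cell lines were pin-tool dosed in 1536-well plates on the day after seeding, with either a lone drug or a fixed anchor-drug dose plus five library-drug doses (not always all listed) in √10 steps. Nuclei were counted on 4× images after 5 days. Relative viability is the ratio of treated-well to vehicle-well nuclei counts, with each value a median of duplicate plates.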

[2] = compound: O=c1ncccn1[C@@H]1O[C@H](CO)[C@@H](O)[C@H]1O [Zebularine] + C[C@]1(O)C[C@@H](c2nc(-c3ccc4ccc(-c5ccccc5)nc4c3)c3c(N)nccn32)C1 [Linsitinib] (partner 1 µM)
Procedure, shortened: as §1

[3] = compound: O=c1ncccn1[C@@H]1O[C@H](CO)[C@@H](O)[C@H]1O [Zebularine] + Cc1nc(NC(=O)N2CCC[C@H]2C(N)=O)sc1-c1ccnc(C(C)(C)C(F)(F)F)c1 [Alpelisib] (partner 2 µM)
Procedure, shortened: as §1

[4] = compound: O=c1ncccn1[C@@H]1O[C@H](CO)[C@@H](O)[C@H]1O [Zebularine] + O=C(CCCCCCC(=O)Nc1ccccc1)NO [Vorinostat] (partner 1 µM)
Procedure, shortened: as §1

Cell Line | relative viability ([1]; first compound 1 µM) | relative viability ([1]; first compound 3.162 µM) | relative viability ([1]; first compound 10 µM) | relative viability ([1]; first compound 31.62 µM) | relative viability ([1]; first compound 100 µM) | relative viability ([2]; first compound 1 µM) | relative viability ([2]; first compound 3.162 µM) | relative viability ([2]; first compound 10 µM) | relative viability ([2]; first compound 31.62 µM) | relative viability ([2]; first compound 100 µM) | relative viability ([3]; first compound 1 µM) | relative viability ([3]; first compound 3.162 µM) | relative viability ([3]; first compound 10 µM) | relative viability ([3]; first compound 31.62 µM) | relative viability ([3]; first compound 100 µM) | relative viability ([4]; first compound 1 µM) | relative viability ([4]; first compound 3.162 µM) | relative viability ([4]; first compound 10 µM) | relative viability ([4]; first compound 31.62 µM) | relative viability ([4]; first compound 100 µM)
NCI-H1666 | 0.721 | 0.785 | 0.634 | 0.947 | 0.979 | 0.748 | 0.862 | 0.675 | 0.804 | 0.562 | 1.16 | 0.984 | 0.852 | 0.932 | 0.618 | 1.01 | 1.02 | 0.752 | 1.09 | 0.939
HCC-366 | 1.02 | 0.831 | 0.558 | 0.807 | 0.253 | 0.764 | 0.75 | 0.428 | 0.355 | 0.0776 | 0.409 | 0.434 | 0.161 | 0.509 | 0.182 | 0.488 | 0.372 | 0.26 | 0.343 | 0.184
SK-MES-1 | 0.707 | 0.606 | 0.454 | 0.514 | 0.288 | 1.15 | 1.14 | 0.78 | 0.567 | 0.299 | 0.902 | 1.01 | 0.596 | 0.575 | 0.345 | 1.28 | 1.18 | 0.914 | 1.09 | 0.351
SW 1573 | 0.603 | 0.606 |  | 0.506 | 0.443 | 0.762 | 0.851 | 0.533 | 0.779 | 0.406 | 0.728 | 0.792 | 0.448 | 0.743 | 0.646 | 0.964 | 0.689 |  | 0.772 | 0.521
NCI-H661 | 0.794 | 0.671 | 0.591 | 0.764 | 0.627 | 0.499 | 0.541 | 0.58 | 0.539 | 0.633 | 0.653 | 0.498 | 0.333 | 0.737 | 0.603 | 0.9 | 0.829 | 0.673 | 0.936 | 0.824
PC-3 [JPC-3] | 0.832 | 0.701 | 0.554 | 0.663 | 0.656 | 1.05 | 0.956 | 0.843 | 0.856 | 0.492 | 1.09 | 0.948 | 0.748 | 0.824 | 0.469 | 1.01 | 0.874 | 0.785 | 0.737 | 0.658
NCI-H1623 | 0.428 | 0.397 | 0.407 | 0.561 | 0.411 |  |  |  |  |  |  |  |  |  |  |  |  |  |  | 
Calu-6 |  |  |  |  |  | 1.03 | 0.946 | 0.734 | 0.864 | 0.209 | 1 | 0.929 | 0.869 | 0.786 | 0.302 |  |  |  |  | 
